{"source": "patent US7732484B2", "about": "“Use of selective adenosine A1 receptor allosteric enhancers to manipulate angiogenesis” (University of Virginia Patent Foundation, priority 2000, dated 2010)", "key": {"[1]": {"test_system": "chicken chorioallantoic membrane (CAM)", "assay": "CAM assay, drug applied daily on filter paper disc, vessels counted", "format": "in vivo", "conditions": "for angiogenic response in the CAM (vessel density at edge of disk): 100 μl daily for 7 days on filter paper disk", "procedure": "Adenosine receptor subtype selective agonists stimulate angiogenesis to varying degrees in the CAM. […] In these studies, sterile filter paper disks were used to apply drug or vehicle to the CAM of eggs windowed after 7 days of incubation. The circular disk was 7 mm diameter. The agonist and antagonist drugs were delivered daily for 7 days in a volume of 100 μl placed onto the disks. On day 14 the CAMs were formalin fixed. The vessel density was determined by counting the vessels that intersected with the edge of the disks. Each bar represents data from between 13 and 19 eggs, with the exception of the bar for xanthine amine congener (XAC) which represents only four eggs. […] It is possible that some adenosine receptors may stimulate angiogenesis, while others, particularly the A2A receptor, may inhibit it. […] The 100 nM doses used should have allowed some preservation of subtype selectivity for the ligands.\nFertile White Leghorn chicken eggs are obtained from Truslow Labs (Maryland) and incubated until day 7 post-fertilization at 37° C. The eggs were automatically rotated by the incubator. On day 7 the eggs were candled to check for viability. The eggshell surface was cleaned with betadine and 70% isopropanol. A window 1.5×1.5 cm was cut into each egg over the CAM. The window was covered with clear cellophane tape and the eggs incubated at 37° C. overnight. The following day a sterile filter paper disc was applied to the CAM for the daily delivery of drugs or vehicle in a volume of 100 μl. CAMs were fixed on day 14 and vessels counted using the aforementioned method of Harris-Hooker et al.\nCPA at 100 nM with or without 1 μM WRC-0571 was applied to filter paper discs on developing CAMs as described above.\nHere, PD enhances the effects of endogenous adenosine on the chicken A1 receptor in the CAM. PD at a concentration of 100 μM, or vehicle, was delivered to the CAM on a filter paper disc using a protocol identical to that used for adenosine agonists. […] A small effect such as this in the absence of applied ligand or ischemia/hypoxia (which would increase the endogenous adenosine levels) is expected. Because it is a rapidly growing tissue, the CAM probably has higher levels of adenosine than more quiescent tissues, resulting in a measurable effect."}, "[2]": {"test_system": "chicken chorioallantoic membrane (CAM)", "assay": "Windowed CAM assay, Elvax pellet, vascular density index", "format": "in vivo", "conditions": "Elvax pellet with 3 mg adenosine, in place for seven days, 12-15 eggs per group, FIG. 5", "procedure": "Fertile White Leghorn chicken eggs were obtained from Truslow Farms (Chesterfield, Mo.). Eggs were incubated at 37° for 7 days, then a 1.5 cm window was cut into each egg over the CAM. Pellets were applied to the CAMs and the windows closed with cellophane tape. Eggs were incubated until day 14 when the CAMs were fixed. […] The pellets were placed on the CAM where there were a few vessels present and were left in place for seven days. The CAMs then were fixed in 10% buffered formalin and vessels were counted under 20× magnification using a Nikon stereomicroscope. The quantitation of vascular number is presented as vascular density index VDI that was an adaptation of a method described by Harris-Hooker (Harris-Hooker et al., Neovascular Responses Induced by Cultured Aortic Endothelial Cells, J. Cell. Phys., 114, 302-310, 1983). A plastic cover slip inscribed with 4, 5, 6, and 8 mm diameter concentric circles was centered over the adenosine pellet on the formalin-fixed CAM. The vascular density was judged by counting the numbers of the vessels which intersected the circles. This technique allowed counting of vessels down to 10-12 u in diameter. The positioning of the pellets on the CAM was randomized. […] Adenosine was delivered by other means as well."}, "rat mesentery": {"test_system": "rat mesentery", "assay": "Rat mesentery angiogenesis, intraperitoneal Alzet osmotic pump infusion", "format": "in vivo", "conditions": "chronic infusion by Alzet pump into the peritoneal cavity, one week, FIG. 11", "procedure": "Drug application into rat mesentery using infusion pumps. Alzet osmotic pumps were filled with drug or vehicle to a volume of 200 μl . The abdominal cavities of anesthetized 150 g Sprague-Dawley rats were incised and pumps implanted into the intraperitoneal cavity. The pumps delivered the drug at 1.0 μl/hr. After one week mesenteric samples were taken between vascular arcades along the length of the small bowel. Specimens were fixed and stained using a BS:lectin stain.\nThe control mesentery is shown on the left, PD 81,723—treated on the right. The chronic infusion was an advantage because the model is not an ischemic one, so steady long term administration of the PD 81,723 may help to augment the effects of lower concentrations of endogenous adenosine."}, "[3]": {"test_system": "chicken chorioallantoic membrane (CAM)", "assay": "CAM assay, drug applied daily on filter paper disc, vessels counted", "format": "in vivo", "conditions": "20 nM CPA alone, FIG. 10"}, "[4]": {"target": "T1, human A3 over the A1 receptor (Homo sapiens, UniProt P0DMS8)", "T1 sequence (P0DMS8 1-318)": "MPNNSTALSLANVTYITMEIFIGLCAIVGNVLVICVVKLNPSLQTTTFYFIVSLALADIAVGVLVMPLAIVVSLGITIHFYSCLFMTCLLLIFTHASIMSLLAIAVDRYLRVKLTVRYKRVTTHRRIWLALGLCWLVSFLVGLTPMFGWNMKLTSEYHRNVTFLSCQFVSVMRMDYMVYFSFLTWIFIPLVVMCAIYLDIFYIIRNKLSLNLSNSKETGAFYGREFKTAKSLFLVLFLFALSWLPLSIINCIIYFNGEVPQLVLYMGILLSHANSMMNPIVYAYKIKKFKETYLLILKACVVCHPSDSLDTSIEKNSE", "conditions": "cited from earlier work"}}, "data": [{"smiles": "CCNC(=O)[C@H]1O[C@@H](n2cnc3c(N)ncnc32)[C@H](O)[C@@H]1O", "note": "[NECA]", "values": [{"measurement": "angiogenic response in the CAM (vessel density at edge of disk)", "setting": "[1]; 100 nM doses, FIG. 6", "value": "positive angiogenic response"}]}, {"smiles": "Nc1ncnc2c1ncn2[C@@H]1O[C@H](CO)[C@@H](O)[C@H]1O", "note": "[Adenosine, adenosine]", "values": [{"measurement": "angiogenesis in the CAM model (vascular density index)", "setting": "[2]", "value": "stimulated angiogenesis"}]}, {"smiles": "CCNC(=O)[C@H]1O[C@@H](n2cnc3c(N)nc(NCCc4ccc(CCC(=O)O)cc4)nc32)[C@H](O)[C@@H]1O", "note": "[CGS21680]", "values": [{"measurement": "angiogenic response in the CAM (vessel density at edge of disk)", "setting": "[1]; 100 nM doses, FIG. 6", "value": "No angiogenic response"}]}, {"smiles": "CC(C)N(C)c1nc2c(N[C@@H]3CC4CC3CC4O)ncnc2n1C", "note": "(some centres unmarked) [WRC-0571]", "values": [{"measurement": "block of the angiogenic effect of CPA in the CAM", "setting": "[1]; 1 μM WRC-0571 with 100 nM CPA, FIG. 7", "value": "completely blocked"}, {"measurement": "block of the effects of endogenous adenosine on angiogenesis in the CAM", "setting": "[1]; FIG. 8", "value": "blocked the effects of endogenous adenosine"}, {"measurement": "block of C17-stimulated angiogenesis in the CAM", "setting": "[1]; FIG. 9", "value": "blocked"}, {"measurement": "block of the effects of PD 81,723 in the CAM", "setting": "[1]; with PD at 100 μM, FIG. 8", "value": "completely blocked"}]}, {"smiles": "Cc1sc(N)c(C(=O)c2cccc(C(F)(F)F)c2)c1C", "note": "[PD 81,723]", "values": [{"measurement": "stimulation of angiogenesis in the CAM", "setting": "[1]; 100 μM on filter paper disc versus vehicle, FIG. 8", "value": 10, "unit": "%"}, {"measurement": "stimulation of angiogenesis in rat mesentery", "setting": "rat mesentery", "value": "Stimulation of angiogenesis"}]}, {"smiles": "OC[C@H]1O[C@@H](n2cnc3c(NC4CCCC4)ncnc32)[C@H](O)[C@@H]1O", "note": "[CPA, Cyclopentyladenosine]", "values": [{"measurement": "angiogenic response in the CAM (vessel density at edge of disk)", "setting": "[1]; 100 nM doses, FIG. 6", "value": "positive angiogenic response"}, {"measurement": "stimulation of angiogenesis in the CAM", "setting": "[3]", "value": "did not stimulate angiogenesis"}]}, {"smiles": "CNC(=O)[C@H]1O[C@@H](n2cnc3c(NCc4cccc(I)c4)ncnc32)[C@H](O)[C@@H]1O", "note": "[m-MECA, N^6-iodobenzyl-5′-N-methyl-carboxamidoadenosine]", "values": [{"measurement": "angiogenic response in the CAM (vessel density at edge of disk)", "setting": "[1]; 100 nM doses, FIG. 6", "value": "positive angiogenic response"}]}, {"smiles": "CCCn1c(=O)c2[nH]c(-c3ccc(OCC(=O)NCCN)cc3)nc2n(CCC)c1=O", "note": "[XAC, xanthine amine congener]", "values": [{"measurement": "inhibition of baseline angiogenesis in the CAM", "setting": "[1]; 100 nM doses, daily for 7 days on filter paper disk, four eggs, FIG. 6", "value": "did not inhibit baseline angiogenesis"}]}, {"smiles": "CCOC(=O)C1=C(C)NC(c2ccccc2)=C(C(=O)OCc2ccccc2)C1C#Cc1ccccc1", "note": "(centres unmarked) [MRS 1191]", "values": [{"measurement": "selectivity for the human A3 over the A1 receptor", "setting": "[4]", "value": "> 1300", "unit": "fold"}]}]}
